Assay results from the NIST ThermoML archive (doi:10.1021/je030147g).
± gives the expanded uncertainty stated by the source.

Columns and labels:
[1] = refractive index (Na D-line) (dimensionless); xn = mol fraction of the nth substance listed; details: 101.33 kPa, Liquid, x2 = 0
[2] = xn = mol fraction of the nth substance listed; details: 101.33 kPa, Liquid, x2 = 0

c1ccncc1 [pyridine] + CCCCN(CCCC)CCCC
refractive index ([1]; 298.15 K): 1.5062 ± 0.0012 | refractive index ([1]; 303.15 K): 1.5025 ± 0.0012 | refractive index ([1]; 308.15 K): 1.5016 ± 0.0012 | mass density ([2]; 298.15 K): 979 ± 1 kg/m3 | speed of sound ([2]; 298.15 K): 1412 ± 6 m/s | viscosity ([2]; 298.15 K): 0.885 ± 0.022 mPa·s | mass density ([2]; 303.15 K): 973.7 ± 1 kg/m3 | viscosity ([2]; 303.15 K): 0.82 ± 0.021 mPa·s | mass density ([2]; 308.15 K): 968.6 ± 1.1 kg/m3 | viscosity ([2]; 308.15 K): 0.766 ± 0.02 mPa·s

ClC(Cl)=C(Cl)Cl [tetrachloroethene] + CCCCN(CCCC)CCCC
refractive index ([1]; 298.15 K): 1.5036 ± 0.0012 | refractive index ([1]; 303.15 K): 1.5005 ± 0.0012 | refractive index ([1]; 308.15 K): 1.4978 ± 0.0012 | mass density ([2]; 298.15 K): 1616 ± 1.7 kg/m3 | speed of sound ([2]; 298.15 K): 1033 ± 5 m/s | viscosity ([2]; 298.15 K): 0.875 ± 0.022 mPa·s | mass density ([2]; 303.15 K): 1607.5 ± 1.8 kg/m3 | viscosity ([2]; 303.15 K): 0.831 ± 0.021 mPa·s | mass density ([2]; 308.15 K): 1597.5 ± 1.8 kg/m3 | viscosity ([2]; 308.15 K): 0.791 ± 0.02 mPa·s

CCCCCCCCCCCCCC [tetradecane] + CCCCN(CCCC)CCCC
refractive index ([1]; 298.15 K): 1.4282 ± 0.0007 | refractive index ([1]; 303.15 K): 1.426 ± 0.0007 | refractive index ([1]; 308.15 K): 1.4236 ± 0.0007 | mass density ([2]; 298.15 K): 760.7 ± 0.8 kg/m3 | speed of sound ([2]; 298.15 K): 1315 ± 6 m/s | viscosity ([2]; 298.15 K): 2.032 ± 0.19 mPa·s | mass density ([2]; 303.15 K): 757 ± 0.8 kg/m3 | viscosity ([2]; 303.15 K): 1.827 ± 0.17 mPa·s | mass density ([2]; 308.15 K): 753.3 ± 0.9 kg/m3 | viscosity ([2]; 308.15 K): 1.653 ± 0.15 mPa·s

C1CCOC1 [tetrahydrofuran] + CCCCN(CCCC)CCCC
refractive index ([1]; 298.15 K): 1.4049 ± 0.0012 | refractive index ([1]; 303.15 K): 1.4026 ± 0.0012 | refractive index ([1]; 308.15 K): 1.3998 ± 0.0012 | mass density ([2]; 298.15 K): 882.9 ± 0.8 kg/m3 | speed of sound ([2]; 298.15 K): 1288 ± 6 m/s | viscosity ([2]; 298.15 K): 0.485 ± 0.014 mPa·s | mass density ([2]; 303.15 K): 877.5 ± 0.9 kg/m3 | viscosity ([2]; 303.15 K): 0.46 ± 0.013 mPa·s | mass density ([2]; 308.15 K): 871.2 ± 0.9 kg/m3 | viscosity ([2]; 308.15 K): 0.439 ± 0.013 mPa·s
